From patent publication US20040156869A1, “2-substituted quinazolin-4-ylamine analogues” (Neurogen Corporation, priority 2002, published 2004)

Molecular target: human capsaicin receptor (VR1) (Homo sapiens, UniProt Q8NER1)
Assay: Capsaicin receptor binding assay ([3H]RTX competition, VR1-transfected HEK293 membranes)
Conditions: not given

human capsaicin receptor (VR1), sequence (Q8NER1 whole entry): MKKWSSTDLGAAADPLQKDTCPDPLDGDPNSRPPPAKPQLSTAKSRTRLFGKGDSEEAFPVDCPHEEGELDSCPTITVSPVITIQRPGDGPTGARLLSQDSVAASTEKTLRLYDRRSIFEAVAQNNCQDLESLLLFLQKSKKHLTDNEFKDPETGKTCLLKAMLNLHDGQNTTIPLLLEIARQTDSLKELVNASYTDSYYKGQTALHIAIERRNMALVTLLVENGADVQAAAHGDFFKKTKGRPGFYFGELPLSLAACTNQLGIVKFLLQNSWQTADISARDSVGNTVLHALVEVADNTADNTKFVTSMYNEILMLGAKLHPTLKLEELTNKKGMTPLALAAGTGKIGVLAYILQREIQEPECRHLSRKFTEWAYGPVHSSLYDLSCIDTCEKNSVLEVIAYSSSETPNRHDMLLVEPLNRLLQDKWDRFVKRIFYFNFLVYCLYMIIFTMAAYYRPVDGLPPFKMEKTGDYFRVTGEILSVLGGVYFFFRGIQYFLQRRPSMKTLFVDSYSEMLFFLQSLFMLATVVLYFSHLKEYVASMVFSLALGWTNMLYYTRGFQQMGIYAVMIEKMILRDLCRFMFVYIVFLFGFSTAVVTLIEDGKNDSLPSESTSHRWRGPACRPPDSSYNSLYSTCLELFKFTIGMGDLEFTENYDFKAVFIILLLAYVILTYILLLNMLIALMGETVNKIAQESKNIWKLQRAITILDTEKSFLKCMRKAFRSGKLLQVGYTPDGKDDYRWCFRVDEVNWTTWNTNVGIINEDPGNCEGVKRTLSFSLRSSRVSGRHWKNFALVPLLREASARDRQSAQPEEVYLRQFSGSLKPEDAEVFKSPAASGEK

Ki, < 1 µM:
FC(F)(F)c1ccc(Nc2nc(CN3CCc4ccccc4C3)nc3cc(-c4ncccc4C(F)(F)F)ccc23)cn1 [Compound 352, [2-(3,4-Dihydro-1H-isoquinolin-2-ylmethyl)-7-(3-trifluoromethyl-pyridin-2-yl)-quinazolin-4-yl]-(6-trifluoromethyl-pyridin-3-yl)-amine]
CCc1ccc(Nc2nc(CN3C[C@@H](C)O[C@H](C)C3)nc3cc(-c4ncccc4Cl)ccc23)cc1 [Compound 626, (R,R)-(4-Ethyl-phenyl)-[7-(3-chloro-pyridin-2-yl)-2-(2,6-dimethyl-morpholin-4-ylmethyl)-quinazolin-4-yl]-amine]
CC1(C)CCCN(Cc2nc(Nc3ccc(C(F)(F)F)cc3)c3ccc(-c4ncccc4C(F)(F)F)nc3n2)C1 [Compound 750, [2-(3,3-Dimethyl-piperidin-1-ylmethyl)-7-(3-trifluoromethyl-pyridin-2-yl)-pyrido[2,3-d]pyrimidin-4-yl]-(4-trifluoromethyl-phenyl)-amine]
Cc1cccnc1-c1ccc2c(Nc3ccc(C(F)(F)F)cc3)nc(CO)nc2n1 [Compound 119, [7-(3-Methyl-pyridin-2-yl)-4-(4-trifluoromethyl-phenylamino)-pyrido[2,3-d]pyrimidin-2-yl]-methanol]
CC(C)OCc1cc(Nc2ccc(C(F)(F)F)cc2)c2ccc(-c3ncccc3C(F)(F)F)nc2n1 [Compound 311, [2-Isopropoxymethyl-7-(3-trifluoromethyl-pyridin-2-yl)-[1,8]naphthyridin-4-yl]-(4-trifluoromethyl-phenyl)-amine]
FC(F)(F)c1ccc(Nc2nc(CNCc3ccccn3)nc3cc(-c4ncccc4C(F)(F)F)ccc23)cn1 [Compound 578, [2-{[(Pyridin-2-ylmethyl)-amino]-methyl}-7-(3-trifluoromethyl-pyridin-2-yl)-quinazolin-4-yl]-(6-trifluoromethyl-pyridin-3-yl)-amine]
CC(C)COCc1nc(Nc2ccc(F)c(F)c2)c2ccc(-c3ncccc3C(F)(F)F)nc2n1 [Compound 252, (3,4-Difluoro-phenyl)-[2-isobutoxymethyl-7-(3-trifluoromethyl-pyridin-2-yl)-pyrido[2,3-d]pyrimidin-4-yl]-amine]
C[C@H]1CN(Cc2nc(Nc3ccc(C(F)(F)F)cc3)c3ccc(-c4ncccc4Cl)cc3n2)C[C@H](C)O1 [Compound 604, (S,S)-[7-(3-Chloro-pyridin-2-yl)-2-(2,6-dimethyl-morpholin-4-ylmethyl)-quinazolin-4-yl]-(4-trifluoromethyl-phenyl)-amine]
COCc1nc(Nc2ccc(S(=O)(=O)NC(C)(C)C)cc2)c2ccc(-c3ncccc3C(F)(F)F)cc2n1 [Compound 37, N-tert-Butyl-4-[2-methoxymethyl-7-(3-trifluoromethyl-pyridin-2-yl)-quinazolin-4-ylamino]-benzenesulfonamide]
C[C@@H]1CN(Cc2nc(Nc3ccc(C(F)(F)F)cc3)c3ccc(-c4ncccc4Cl)cc3n2)C[C@@H](C)O1 [Compound 606, (R,R)-[7-(3-Chloro-pyridin-2-yl)-2-(2,6-dimethyl-morpholin-4-ylmethyl)-quinazolin-4-yl]-(4-trifluoromethyl-phenyl)-amine]
CN(Cc1cccc(F)c1)Cc1nc(Nc2ccc(C(F)(F)F)nc2)c2ccc(-c3ncccc3C(F)(F)F)cc2n1 [Compound 353]
C[C@@H]1CN(Cc2nc(Nc3ccc(C(F)(F)F)cc3)c3ncc(-c4ncccc4C(F)(F)F)cc3n2)C[C@H](C)O1 [Compound 546, [2-(2,6-Dimethyl-morpholin-4-ylmethyl)-7-(3-trifluoromethyl-pyridin-2-yl)-pyrido[3,2-d]pyrimidin-4-yl]-(4-trifluoromethyl-phenyl)-amine (cis)]
CCCCN(CC)CCc1nc(Nc2ccc(C(F)(F)F)cc2)c2ccc(-c3ncccc3C(F)(F)F)cc2n1 [Compound 417, [2-[(Butyl-ethyl-amino)-ethyl]-7-(3-trifluoromethyl-pyridin-2-yl)-quinazolin-4-yl]-(4-trifluoromethyl-phenyl)-amine]
CN(C)CC(C)(C)CNC(=O)c1nc(Nc2ccc(C(F)(F)F)cc2)c2ccc(-c3ncccc3C(F)(F)F)nc2n1 [Compound 434, 4-(4-Trifluoromethyl-phenylamino)-7-(3-trifluoromethyl-pyridin-2-yl)-pyrido[2,3-d]pyrimidine-2-carboxylic acid (3-dimethylamino-2,2-dimethyl-propyl)-amide]
CC(=O)c1ccc(Nc2nc(COCC(C)C)nc3nc(-c4ncccc4C(F)(F)F)ccc23)cc1 [Compound 250, 1-{4-[2-Isobutoxymethyl-7-(3-trifluoromethyl-pyridin-2-yl)-pyrido[2,3-d]pyrimidin-4-ylamino]-phenyl}-ethanone]
CN(C)CC(O)COCc1nc(Nc2ccc(C(F)(F)F)cc2)c2ccc(-c3ncccc3C(F)(F)F)cc2n1 (centres unmarked) [Compound 144, 1-Dimethylamino-3-[4-(4-trifluoromethyl-phenylamino)-7-(3-trifluoromethyl-pyridin-2-yl)-quinazolin-2-ylmethoxy]-propan-2-ol]
CCOC(=O)c1nc(Nc2ccc(C(C)(C)C)cc2)c2ccc(-c3ncccc3C(F)(F)F)nc2n1 [Compound 219, 4-(4-tert-Butyl-phenylamino)-7-(3-trifluoromethyl-pyridin-2-yl)-pyrido[2,3-d]pyrimidine-2-carboxylic acid ethyl ester]
FC(F)(F)c1ccc(Nc2nc(CNC3CCSCC3)nc3cc(-c4ncccc4C(F)(F)F)ccc23)cn1 [Compound 554, [2-[(Tetrahydro-thiopyran-4-ylamino)-methyl]-7-(3-trifluoromethyl-pyridin-2-yl)-quinazolin-4-yl]-(6-trifluoromethyl-pyridin-3-yl)-amine]
CCOC(=O)c1nc(Nc2ccc(C(F)(F)F)cc2)c2ccc(-c3ncccc3C(F)(F)F)cc2n1 [Compound 99, 4-(4-Trifluoromethyl-phenylamino)-7-(3-trifluoromethyl-pyridin-2-yl)-quinazoline-2-carboxylic acid ethyl ester]
CC1CCCCN1Cc1cc(Nc2ccc(C(F)(F)F)cc2)c2ccc(-c3ncccc3C(F)(F)F)nc2n1 (centres unmarked) [Compound 810, [2-(2-Methyl-piperidin-1-ylmethyl)-7-(3-trifluoromethyl-pyridin-2-yl)-[1,8]naphthyridin-4-yl]-(4-trifluoromethyl-phenyl)-amine]
CC(=O)OCc1nc(Nc2ccc(C(F)(F)F)cc2)c2ccc(-c3ncccc3C(F)(F)F)cc2n1 [Compound 9, Acetic acid 4-(4-trifluoromethyl-phenylamino)-7-(3-trifluoromethyl-pyridin-2-yl)-quinazolin-2-ylmethyl ester]
C[C@@H]1CN(Cc2nc(Nc3ccc(C(F)(F)F)nc3)c3ccc(-c4ncccc4Cl)cc3n2)C[C@H](C)O1 [Compound 599, [7-(3-Chloro-pyridin-2-yl)-2-(2,6-dimethyl-morpholin-4-ylmethyl)-quinazolin-4-yl]-(6-trifluoromethyl-pyridin-3-yl)-amine (cis)]
OCCC1CCN(Cc2nc(Nc3ccc(C(F)(F)F)cc3)c3ccc(-c4ncccc4C(F)(F)F)cc3n2)CC1 [Compound 494, 2-{1-[4-(4-Trifluoromethyl-phenylamino)-7-(3-trifluoromethyl-pyridin-2-yl)-quinazolin-2-ylmethyl]-piperidin-4-yl}-ethanol]
CC(C)c1ccc(Nc2nc(CN3C[C@@H](C)O[C@@H](C)C3)nc3cc(-c4ncccc4Cl)ccc23)cc1 [Compound 681, [7-(3-Chloro-pyridin-2-yl)-2-(2,6-dimethyl-morpholin-4-ylmethyl)-quinazolin-4-yl]-(4-isopropyl-phenyl)-amine (cis)]
CC(C)(C)c1ccc(Nc2nc(CN3CCC[C@@H]3C(=O)O)nc3cc(-c4ncccc4C(F)(F)F)ccc23)cc1 [Compound 745, (R)-1-[4-(4-tert-Butyl-phenylamino)-7-(3-trifluoromethyl-pyridin-2-yl)-quinazolin-2-ylmethyl]-pyrrolidine-2-carboxylic acid]
Cc1cccnc1-c1ccc2c(Nc3ccc(C(C)C)cc3)nc(CN(C)C(C)C)nc2c1 [Compound 718, [2-[(Isopropyl-methyl-amino)-methyl]-7-(3-methyl-pyridin-2-yl)-quinazolin-4-yl]-(4-isopropyl-phenyl)-amine]
C[C@@H]1CN(Cc2nc(Nc3ccc(C(C)(C)C)cc3)c3ccc(-c4cccnc4)cc3n2)C[C@H](C)O1 [Compound 676, (4-tert-Butyl-phenyl)-[2-(2,6-dimethyl-morpholin-4-ylmethyl)-7-pyridin-3-yl-quinazolin-4-yl]-amine (cis)]
CC(C)c1ccc(Nc2nc(CO)nc3cc(-c4ncccc4C(F)(F)F)ccc23)cc1 [Compound 156, [4-(4-Isopropyl-phenylamino)-7-(3-trifluoromethyl-pyridin-2-yl)-quinazolin-2-yl]-methanol]
Cc1cccnc1-c1ccc2c(Nc3ccc(C(C)C)cc3)nc(CN3CCCC(C)(C)C3)nc2c1 [Compound 714, [2-(3,3-Dimethyl-piperidin-1-ylmethyl)-7-(3-methyl-pyridin-2-yl)-quinazolin-4-yl]-(4-isopropyl-phenyl)-amine]
C=CCN(CC=C)C(=O)c1nc(Nc2ccc(C(F)(F)F)cc2)c2ccc(-c3ncccc3C(F)(F)F)nc2n1 [Compound 465, 4-(4-Trifluoromethyl-phenylamino)-7-(3-trifluoromethyl-pyridin-2-yl)-pyrido[2,3-d]pyrimidine-2-carboxylic acid diallylamide]
CCOCc1nc(Nc2ccc(C(C)(C)C)cc2)c2ccc(-c3ncccc3Cl)cc2n1 [Compound 79, (4-tert-Butyl-phenyl)-[7-(3-chloro-pyridin-2-yl)-2-ethoxymethyl-quinazolin-4-yl]-amine]

Same assay, conditions: Table III; capsaicin receptor binding

Ki, < 1 µM:
CCCN(Cc1nc(Nc2ccc(C(F)(F)F)nc2)c2ccc(-c3ncccc3C(F)(F)F)cc2n1)CC1CC1 [Compound 558, [2-[(Cyclopropylmethyl-propyl-amino)-methyl]-7-(3-trifluoromethyl-pyridin-2-yl)-quinazolin-4-yl]-(6-trifluoromethyl-pyridin-3-yl)-amine]
